Measurements: patent US9834514B2, “Antibiotic sensitivity-restoring and photosensitive agents” (New Mexico Tech Research Foundation, priority 2015, dated 2017)

Assays:
drug-resistant bacteria = assay: Summary of synergistic activities with antibiotic families (TABLE 45); assay type: cell-based
Excerpt: TABLE 45 summarizes the synergistic activities of the seven classes of clinically used antibiotics and compounds of the invention against a variety of different drug-resistant bacteria.

MRSA = assay: Resensitization to antibiotics (log reduction, TABLE 29); assay type: cell-based, S. aureus; details: compound 8 μM; Oxacillin ([…])
Experimental: In a 96-well microtiter plate, two-fold dilutions were made of each drug (starting with 100 μM) in 100 μL of a cell suspension in TSB. The resulting samples were incubated overnight at 37° C. on a rotary shaking incubator at 100 rpm. The samples were then visually inspected for turbidity. A 20% well volume of MTT reagent (5 mg/mL) was subsequently added, and the samples were incubated for about 20 minutes.

P. aeruginosa = assay: Cell killing with compounds and PME at fixed concentrations, with and without white light; assay type: cell-based; details: 20 μM compound and 0.1 μg/mL PME
Experimental: FIG. 26 is an example of the treatment of P. aeruginosa with compound 1 and PME at fixed concentrations.
P. aeruginosa cells were also treated with white light upon being incubated with compound 1 for different durations of time. In a 12×75 mm borosilicate glass culture tube, 1 mL of cell suspension was added. PME was added to the cells, and the samples were mixed using a vortex mixer. The resulting samples were incubated for 1.5 hours at 37° C. on a rotary shaking incubator at 100 rpm. Compound 1 was then added, and the samples were incubated for 30 minutes at 37° C. on a rotary shaking incubator at 100 rpm. The samples were then irradiated with white light using a Lumacare™ LC-122 for 2 minutes (irradiation λ1) and incubated overnight at 37° C. The samples were irradiated again with white light using a Lumacare™ LC-122 for 2 minutes (irradiation λ2). Ten-fold dilutions were made of each sample, and 10 μL of each dilution was drip-streaked onto an agar plate. The samples were incubated overnight at 37° C., and colony counts were performed to calculate CFU/mL.
FIG. 55 is an illustrative example of the treatment of P. aeruginosa with compound 1, PME, co-treatment with compound 1 and PME, and co-treatment with compound 1, PME, and light (λ1 and λ2) at fixed concentrations.

[1] = tested on: MRSA isolates (S. aureus ATCC 33591, BAA-44, BAA-1707, BAA-1717, BAA-1720, BAA-1747, BAA-1754, BAA-1761, BAA-1763, BAA-1764, BAA-1766); assay: Combination effects of compounds 7-11 and antibiotics on MRSA isolates (turbidity); assay type: cell-based
Excerpt: Inhibition resulting from co-treatment of a broth suspension with a compound of the invention and an antibiotic was compared to broth suspensions subjected to each individual treatment. A visual observation of inhibition with the unaided eye upon co-treatment of the broth suspensions, based on turbidity, was considered synergistic.
Exceptions to reading complete inhibition of growth included Gram-positive cocci. For Gram-positive cocci, trailing growth was observed. For these species, the MICs were read at the first spot where trailing was observed, and tiny buttons of growth were ignored. […]
Two-fold dilutions of the antibiotics were prepared in a liquid growth medium dispensed in test tubes. […] The antibiotic-containing tubes were inoculated with a standard bacterial suspension of 5×10^5 CFU/mL. Following an overnight incubation (16-20 hrs) at 35±2° C. under ambient air, the tubes were examined for visible bacterial growth based on turbidity. The lowest concentration of antibiotic that prevented growth was determined to be the MIC. An incubation time of 24 hrs was used to determine the MICs of oxacillin and vancomycin.

[2] = tested on: A. baumannii (ATCC 15151); assay: MIC against A. baumannii; assay type: cell-based; details: Acinetobacter baumannii, ATCC15151
[3] = tested on: A. baumannii (ATCC 15151); assay: Time course of colony counts with compounds and PME or PMB; assay type: cell-based; details: 0.2 μg/mL of PME, compound 5 μM; FIGS. 50, 52
Experimental: The MICs of PME and compounds 8-11 were determined against A. baumannii (ATCC 15151). […] After incubating the cells with PME, a compound (5 μM) was added, and the samples were further incubated at 37° C. At specific time points, samples were taken and diluted ten-fold in media. Ten microliters of each dilution was then drip-streaked onto an agar plate and incubated overnight at 37° C. Colony counts were then performed, and the CFU/mL were calculated.

Clc1ccc(/N=N/c2c[nH]c3ccccc23)cc1 [Compound 9]
Synergy with Polymyxin B (Polypeptides) (drug-resistant bacteria; A. baumannii ATCC 15151): Synergy
Synergy with Polymyxin E (Polypeptides) (drug-resistant bacteria; A. baumannii ATCC 15151): Synergy
Synergy with Polymyxin B (Polypeptides) (drug-resistant bacteria; CRE ATCC 1705): Synergy
Synergy with Polymyxin E (Polypeptides) (drug-resistant bacteria; CRE ATCC 1705): Synergy
Synergy with Polymyxin B (Polypeptides) (drug-resistant bacteria; CRE ATCC 2340): Synergy
Synergy with Polymyxin E (Polypeptides) (drug-resistant bacteria; CRE ATCC 2340): Synergy
Synergy with Polymyxin B (Polypeptides) (drug-resistant bacteria; CRE ATCC 2341): Synergy
Synergy with Polymyxin E (Polypeptides) (drug-resistant bacteria; CRE ATCC 2341): Synergy
Synergy with Polymyxin B (Polypeptides) (drug-resistant bacteria; CRE ATCC 2342): Synergy
Synergy with Polymyxin E (Polypeptides) (drug-resistant bacteria; CRE ATCC 2342): Synergy
Synergy with Norfioxacin (Fluoroquinolones) (drug-resistant bacteria; MRSA ATCC BAA-44): Synergy
Synergy with Oxacillin (β-lactama) (drug-resistant bacteria; MRSA ATCC BAA-44, *indicated ampicillin, dicloxicillin and Penicillin G): Synergy*
Synergy with Polymyxin B (Polypeptides) (drug-resistant bacteria; P. aeruginosa ATCC 27853): Synergy
Synergy with Polymyxin E (Polypeptides) (drug-resistant bacteria; P. aeruginosa ATCC 27853): Synergy
Synergy with Norfioxacin (Fluoroquinolones) (drug-resistant bacteria; VRE ATCC 51299): Synergy
Synergy with Tetracycline (Tetracyclines) (drug-resistant bacteria; VRE ATCC 51299): Synergy
Synergy with Vancomycin (Glycopeptides) (drug-resistant bacteria; VRE ATCC 51299): Synergy
Log Reduction (MRSA): 2-3
Co-treatment with PME: log reduction in the CFU/mL compared to PME alone (P. aeruginosa): 2-log reduction
Co-treatment with PME: log reduction in the CFU/mL compared to PME alone (P. aeruginosa; listed as compound 9): ~2 log reduction
combination effect with Gentamycin ([1]; MRSA ATCC 33591): No Synergy
combination effect with Norfloxacin ([1]; MRSA ATCC 33591): No Synergy
combination effect with Oxacillin ([1]; MRSA ATCC 33591): No Synergy
combination effect with Tetracycline ([1]; MRSA ATCC 33591): No Synergy
combination effect with Vancomycin ([1]; MRSA ATCC 33591): Susceptible
combination effect with Norfloxacin ([1]; MRSA ATCC BAA-44): No Synergy
combination effect with Oxacillin ([1]; MRSA ATCC BAA-44): No Synergy
combination effect with Tetracycline ([1]; MRSA ATCC BAA-44): Susceptible
combination effect with Vancomycin ([1]; MRSA ATCC BAA-44): Susceptible
combination effect with Gentamycin ([1]; MRSA ATCC BAA-1707): Susceptible
combination effect with Norfloxacin ([1]; MRSA ATCC BAA-1707): Susceptible
combination effect with Oxacillin ([1]; MRSA ATCC BAA-1707): Susceptible
combination effect with Tetracycline ([1]; MRSA ATCC BAA-1707): No Synergy
combination effect with Vancomycin ([1]; MRSA ATCC BAA-1707): Susceptible
combination effect with Gentamycin ([1]; MRSA ATCC BAA-1717): Susceptible
combination effect with Norfloxacin ([1]; MRSA ATCC BAA-1717): Susceptible
combination effect with Oxacillin ([1]; MRSA ATCC BAA-1717): Synergy
combination effect with Tetracycline ([1]; MRSA ATCC BAA-1717): Susceptible
combination effect with Vancomycin ([1]; MRSA ATCC BAA-1717): Susceptible
combination effect with Gentamycin ([1]; MRSA ATCC BAA-1720): Susceptible
combination effect with Norfloxacin ([1]; MRSA ATCC BAA-1720): No Synergy
combination effect with Oxacillin ([1]; MRSA ATCC BAA-1720): Synergy
combination effect with Tetracycline ([1]; MRSA ATCC BAA-1720): Susceptible
combination effect with Vancomycin ([1]; MRSA ATCC BAA-1720): Susceptible
combination effect with Gentamycin ([1]; MRSA ATCC BAA-1747): Susceptible
combination effect with Norfloxacin ([1]; MRSA ATCC BAA-1747): Susceptible
combination effect with Oxacillin ([1]; MRSA ATCC BAA-1747): Susceptible
combination effect with Tetracycline ([1]; MRSA ATCC BAA-1747): Susceptible
combination effect with Vancomycin ([1]; MRSA ATCC BAA-1747): Susceptible
combination effect with Gentamycin ([1]; MRSA ATCC BAA-1754): Susceptible
combination effect with Norfloxacin ([1]; MRSA ATCC BAA-1754): Susceptible
combination effect with Oxacillin ([1]; MRSA ATCC BAA-1754): No Synergy
combination effect with Tetracycline ([1]; MRSA ATCC BAA-1754): Susceptible
combination effect with Vancomycin ([1]; MRSA ATCC BAA-1754): Susceptible
combination effect with Gentamycin ([1]; MRSA ATCC BAA-1761): Susceptible
combination effect with Norfloxacin ([1]; MRSA ATCC BAA-1761): No Synergy
combination effect with Oxacillin ([1]; MRSA ATCC BAA-1761): Susceptible
combination effect with Tetracycline ([1]; MRSA ATCC BAA-1761): Susceptible
combination effect with Vancomycin ([1]; MRSA ATCC BAA-1761): Susceptible
combination effect with Gentamycin ([1]; MRSA ATCC BAA-1763): Susceptible
combination effect with Norfloxacin ([1]; MRSA ATCC BAA-1763): No Synergy
combination effect with Oxacillin ([1]; MRSA ATCC BAA-1763): Synergy
combination effect with Tetracycline ([1]; MRSA ATCC BAA-1763): Susceptible
combination effect with Vancomycin ([1]; MRSA ATCC BAA-1763): Susceptible
combination effect with Gentamycin ([1]; MRSA ATCC BAA-1764): Susceptible
combination effect with Norfloxacin ([1]; MRSA ATCC BAA-1764): Susceptible
combination effect with Oxacillin ([1]; MRSA ATCC BAA-1764): Synergy
combination effect with Tetracycline ([1]; MRSA ATCC BAA-1764): Susceptible
combination effect with Vancomycin ([1]; MRSA ATCC BAA-1764): Susceptible
combination effect with Gentamycin ([1]; MRSA ATCC BAA-1766): Susceptible
combination effect with Norfloxacin ([1]; MRSA ATCC BAA-1766): Susceptible
combination effect with Oxacillin ([1]; MRSA ATCC BAA-1766): Synergy
combination effect with Tetracycline ([1]; MRSA ATCC BAA-1766): Susceptible
combination effect with Vancomycin ([1]; MRSA ATCC BAA-1766): Susceptible
MIC [2]: > 100 µM
A. baumannii colony populations on treatment with compound and PME [3]: reduced to sterility
